Laboratory results: ChEMBL document CHEMBL4130592, “In Silico HTS and Structure Based Optimization of Indazole-Derived ULK1 Inhibitors” (ACS Med Chem Lett, 2017)

Experiments:
[1] = target: T1, Serine/threonine-protein kinase ULK1 (Homo sapiens, UniProt O75385); test: Inhibition of ATG13 binding to full-length ULK1 (unknown origin) expressed in HEK293T cells preincubated for 15 mins followed by human C-terminal FLAG-tagged ATG13 addition measured after 30 mins by Alphascreen assay; type: cell-based
T1 sequence (O75385 whole entry): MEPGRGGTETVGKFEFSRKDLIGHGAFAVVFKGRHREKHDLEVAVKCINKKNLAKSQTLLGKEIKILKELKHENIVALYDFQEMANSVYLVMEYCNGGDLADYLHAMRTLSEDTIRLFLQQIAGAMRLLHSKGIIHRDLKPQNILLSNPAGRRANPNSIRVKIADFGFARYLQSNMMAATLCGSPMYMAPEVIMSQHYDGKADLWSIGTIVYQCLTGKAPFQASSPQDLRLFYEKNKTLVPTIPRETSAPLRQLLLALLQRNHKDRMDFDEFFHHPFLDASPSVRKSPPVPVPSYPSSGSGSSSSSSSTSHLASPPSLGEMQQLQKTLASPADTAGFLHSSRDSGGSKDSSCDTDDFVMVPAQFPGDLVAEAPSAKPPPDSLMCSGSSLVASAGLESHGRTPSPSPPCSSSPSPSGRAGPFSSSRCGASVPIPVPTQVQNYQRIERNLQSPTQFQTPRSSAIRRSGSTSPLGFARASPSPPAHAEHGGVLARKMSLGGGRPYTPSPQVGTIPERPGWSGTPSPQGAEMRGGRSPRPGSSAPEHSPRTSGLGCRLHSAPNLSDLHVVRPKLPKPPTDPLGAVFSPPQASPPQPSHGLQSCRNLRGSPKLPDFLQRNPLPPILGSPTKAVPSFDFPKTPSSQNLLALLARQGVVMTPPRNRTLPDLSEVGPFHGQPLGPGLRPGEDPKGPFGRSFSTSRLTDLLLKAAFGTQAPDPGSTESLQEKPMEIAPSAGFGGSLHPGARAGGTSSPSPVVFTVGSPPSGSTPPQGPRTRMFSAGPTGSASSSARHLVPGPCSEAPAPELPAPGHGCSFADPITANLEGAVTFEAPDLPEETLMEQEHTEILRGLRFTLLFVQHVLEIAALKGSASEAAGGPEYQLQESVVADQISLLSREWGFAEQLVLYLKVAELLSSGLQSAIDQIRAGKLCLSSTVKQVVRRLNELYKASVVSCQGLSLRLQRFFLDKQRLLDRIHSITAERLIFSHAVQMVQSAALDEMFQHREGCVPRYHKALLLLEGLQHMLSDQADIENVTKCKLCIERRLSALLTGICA

[2] = target: T2, Cytochrome P450 1A2 (Homo sapiens, UniProt P05177); test: Inhibition of CYP1A2 (unknown origin) at 10 uM; type: ADME
T2 sequence (P05177 whole entry): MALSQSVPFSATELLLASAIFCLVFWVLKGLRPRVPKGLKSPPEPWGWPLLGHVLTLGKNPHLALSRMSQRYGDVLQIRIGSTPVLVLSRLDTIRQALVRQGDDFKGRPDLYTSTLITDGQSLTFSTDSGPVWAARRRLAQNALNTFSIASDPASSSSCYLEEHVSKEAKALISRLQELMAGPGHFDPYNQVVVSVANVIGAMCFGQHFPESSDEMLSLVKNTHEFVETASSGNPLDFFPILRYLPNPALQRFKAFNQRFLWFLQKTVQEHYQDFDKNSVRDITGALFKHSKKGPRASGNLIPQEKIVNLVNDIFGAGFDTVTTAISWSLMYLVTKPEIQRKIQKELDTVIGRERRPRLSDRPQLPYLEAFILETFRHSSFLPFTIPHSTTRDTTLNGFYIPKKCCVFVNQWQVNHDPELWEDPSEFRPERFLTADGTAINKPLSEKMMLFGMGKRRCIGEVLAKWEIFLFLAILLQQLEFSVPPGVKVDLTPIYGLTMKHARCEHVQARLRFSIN

[3] = target: Cytochrome P450 2D6 (Homo sapiens, UniProt P10635); test: Inhibition of CYP2D6 (unknown origin) at 10 uM; type: ADME
Sequence of Cytochrome P450 2D6 (P10635 whole entry): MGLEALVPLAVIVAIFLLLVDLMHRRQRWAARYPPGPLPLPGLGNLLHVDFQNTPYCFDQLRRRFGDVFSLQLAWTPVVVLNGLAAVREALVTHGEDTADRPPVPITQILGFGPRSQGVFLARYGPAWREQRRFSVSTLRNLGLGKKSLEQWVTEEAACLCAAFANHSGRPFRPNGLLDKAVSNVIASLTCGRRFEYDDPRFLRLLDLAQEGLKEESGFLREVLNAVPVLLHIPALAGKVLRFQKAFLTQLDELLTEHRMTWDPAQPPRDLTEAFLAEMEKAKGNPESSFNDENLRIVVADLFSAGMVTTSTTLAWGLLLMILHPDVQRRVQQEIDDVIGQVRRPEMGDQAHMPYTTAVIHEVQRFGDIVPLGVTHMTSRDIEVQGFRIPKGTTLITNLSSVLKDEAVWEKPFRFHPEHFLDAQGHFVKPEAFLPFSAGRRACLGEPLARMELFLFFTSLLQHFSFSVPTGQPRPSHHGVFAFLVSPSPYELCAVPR

[4] = Stability in human microsomes; type: ADME, Microsome
[5] = target: Cytochrome P450 2C9 (Homo sapiens, UniProt P11712); test: Inhibition of CYP2C9 (unknown origin) at 10 uM; type: ADME
Sequence of Cytochrome P450 2C9 (P11712 whole entry): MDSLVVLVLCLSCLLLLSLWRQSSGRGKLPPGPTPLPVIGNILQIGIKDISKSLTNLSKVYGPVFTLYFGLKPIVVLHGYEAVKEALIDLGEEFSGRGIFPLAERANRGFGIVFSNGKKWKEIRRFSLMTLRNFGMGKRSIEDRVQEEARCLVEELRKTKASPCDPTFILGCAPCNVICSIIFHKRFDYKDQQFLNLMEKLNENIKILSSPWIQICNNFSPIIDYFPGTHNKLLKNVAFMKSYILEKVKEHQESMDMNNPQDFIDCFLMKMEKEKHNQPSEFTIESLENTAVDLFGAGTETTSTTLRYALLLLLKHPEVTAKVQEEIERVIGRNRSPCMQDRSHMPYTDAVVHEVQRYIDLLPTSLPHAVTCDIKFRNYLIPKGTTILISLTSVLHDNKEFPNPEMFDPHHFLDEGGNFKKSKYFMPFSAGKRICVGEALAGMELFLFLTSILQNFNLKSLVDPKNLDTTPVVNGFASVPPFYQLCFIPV

[6] = Stability in mouse microsomes; type: ADME, Microsome
[7] = Stability in rat microsomes; type: ADME, Microsome
[8] = target: Cytochrome P450 3A4 (Homo sapiens, UniProt P08684); test: Inhibition of CYP3A4 (unknown origin) at 10 uM; type: ADME
Sequence of Cytochrome P450 3A4 (P08684 whole entry): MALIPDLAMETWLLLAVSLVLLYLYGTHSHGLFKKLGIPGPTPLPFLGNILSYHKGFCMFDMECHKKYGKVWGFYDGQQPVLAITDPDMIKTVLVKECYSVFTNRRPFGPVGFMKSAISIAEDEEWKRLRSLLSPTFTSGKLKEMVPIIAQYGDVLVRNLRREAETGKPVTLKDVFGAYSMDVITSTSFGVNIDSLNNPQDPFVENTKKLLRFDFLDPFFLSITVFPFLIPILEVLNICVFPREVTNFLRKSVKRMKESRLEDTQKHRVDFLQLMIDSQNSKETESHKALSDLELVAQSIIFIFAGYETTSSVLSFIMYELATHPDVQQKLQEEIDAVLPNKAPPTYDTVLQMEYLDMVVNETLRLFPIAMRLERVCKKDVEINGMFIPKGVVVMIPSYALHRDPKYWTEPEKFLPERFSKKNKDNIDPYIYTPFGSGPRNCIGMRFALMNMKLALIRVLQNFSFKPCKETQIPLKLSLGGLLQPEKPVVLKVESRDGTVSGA

[9] = Half life in human microsomes; type: ADME, Microsome

Nc1cccc(C(=O)Nc2ccc3[nH]nc(N)c3c2)c1
IC50 [1]: 18.1 µM

COc1ccccc1Nc1n[nH]c2ccc(NC(=O)C3CCCC(N)C3)cc12 (stereo unspecified)
inhibition (INH) [2]: Not Active
inhibition (INH) [3]: Not Active
Stability [4]: Stable
IC50 [1]: 0.11 µM
inhibition (INH) [5]: Not Active
Stability [6]: Stable
Stability [7]: Stable
inhibition (INH) [8]: Not Active

Nc1n[nH]c2ccc(NC(=O)C3CCCCN3)cc12 (racemic)
IC50 [1]: 0.84 µM

NC1CCCC(C(=O)Nc2ccc3[nH]nc(Nc4ccccc4)c3c2)C1 (stereo unspecified)
IC50 [1]: 2.73 µM

CN(C)C1CCCC(C(=O)Nc2ccc3[nH]nc(Nc4cccc5ccccc45)c3c2)C1 (stereo unspecified)
IC50 [1]: 4.23 µM

Nc1n[nH]c2ccc(NC(=O)C3CCCNC3)cc12 (racemic)
IC50 [1]: 0.67 µM

NC1CCCC(C(=O)Nc2ccc3[nH]nc(Nc4ccc(Br)cc4)c3c2)C1 (stereo unspecified)
IC50 [1]: 0.416 µM

COc1ccc(CNc2n[nH]c3ccc(NC(=O)C4CCCC(N)C4)cc23)cc1 (stereo unspecified)
IC50 [1]: 0.477 µM

N[C@H]1CCC[C@@H](C(=O)Nc2ccc3[nH]nc(Nc4cccc5ccccc45)c3c2)C1
half-life [9]: 3.73 h
inhibition (INH) [2]: Not Active
inhibition (INH) [3]: Not Active
inhibition (INH) [5]: Not Active
inhibition (INH) [8]: Not Active

NC1CCCC(C(=O)Nc2ccc3[nH]nc(NC(=O)c4ccccc4)c3c2)C1 (stereo unspecified)
IC50 [1]: 0.242 µM

O=C(Nc1ccc2[nH]nc(Nc3cccc4ccccc34)c2c1)C1CCNCC1
inhibition (INH) [2]: Not Active
inhibition (INH) [3]: Not Active
Stability [4]: Stable
IC50 [1]: 0.315 µM
inhibition (INH) [5]: Not Active
Stability [6]: Stable
Stability [7]: Stable
inhibition (INH) [8]: Not Active

NC1CCCC(C(=O)Nc2ccc3[nH]nc(Nc4cccc5cnccc45)c3c2)C1 (stereo unspecified)
IC50 [1]: 0.04 µM

NCCCC(=O)Nc1ccc2[nH]nc(N)c2c1
IC50 [1]: > 33 µM

O=C(Nc1ccc2[nH]nc(Nc3cccc4ccccc34)c2c1)C1CCOCC1
IC50 [1]: 1.83 µM

NC1CCCC(C(=O)Nc2ccc3[nH]nc(Nc4cccc5ccccc45)c3c2)C1 (mixture of isomers)
inhibition (INH) [2]: Not Active
inhibition (INH) [3]: Not Active
Stability [4]: Stable
inhibition (INH) [5]: Not Active
Stability [6]: Stable
Stability [7]: Stable
inhibition (INH) [8]: Not Active

COC(=O)c1cccc(Nc2n[nH]c3ccc(NC(=O)C4CCCC(N)C4)cc23)c1 (stereo unspecified)
IC50 [1]: 0.183 µM

Nc1n[nH]c2ccc(NC(=O)C3CCNCC3)cc12
IC50 [1]: 0.56 µM

Nc1n[nH]c2ccc(NC(=O)[C@H]3CC[C@H](N)CC3)cc12
IC50 [1]: 14 µM

NC1CCCC(C(=O)Nc2ccc3[nH]nc(Nc4cccc(C(F)(F)F)c4)c3c2)C1 (stereo unspecified)
IC50 [1]: 0.288 µM

O=C(Nc1ccc2[nH]nc(Nc3cccc4ccccc34)c2c1)C1CCN1 (stereo unspecified)
IC50 [1]: 4.94 µM

NC1CCCC(C(=O)Nc2ccc3[nH]nc(Nc4ccnc5ccccc45)c3c2)C1 (stereo unspecified)
IC50 [1]: 0.239 µM

Nc1n[nH]c2ccc(NC(=O)[C@H]3CC[C@@H](N)CC3)cc12
IC50 [1]: 1.49 µM
